Measured values from patent publication US20150197497A1, “SELECTIVE INHIBITORS OF HISTONE DEACETYLASE ISOFORM 6 AND METHODS THEREOF” (DANA-FARBER CANCER INSTITUTE, INC., priority 2011, published 2015).

Tests used:
acetylated histones = test: High-content image analysis of induction of acetylated histones in A549 cells; conditions: for levels of acetylated histone, dose response (in words): A549 cells, FIG. 11; for EC50: Homo sapiens, A549, 8 h, read-out: EC50 for half-maximal induction of acetylated histones (AcHistone)
HDAC3 = target: T1, HDAC3 (Homo sapiens, UniProt O15379); test: In vitro HDAC enzyme inhibition assay, HDAC3; type: biochemical; conditions: for HDAC3/HDAC6 in vitro selectivity: ratio of IC50 for HDAC3 relative to that of HDAC6; for IC50: recombinant full-length HDAC3, substrate MAZ1600 9 μM
T1 construct: Recombinant, full-length HDAC protein (BPS Biosciences) was incubated with fluorophore conjugated substrate; purchased BPS Biosciences
Method: (§1) In vitro Histone Deacetylase enzyme assays were performed using Class I (isoforms: HDAC1, HDAC2, HDAC3 and HDAC8), class IIa (isoforms: HDAC4, HDAC5, HDAC7 and HDAC9) and class IIb (isoform HDAC6).
(§2) HDAC activities were determined in vitro with an optimized homogenous assay performed in a 384-well plate. Recombinant, full-length HDAC protein (BPS Biosciences) was incubated with fluorophore conjugated substrate, MAZ1600 and MAZ1675, at Km=[S]. […] Reactions were performed in assay buffer (50 mM HEPES, 100 mM KCl, 0.001% Tween-20, 0.05% BSA, 200 μM tris(2-carboxyethyl)phosphine (TCEP), pH 7.4) and followed for fluorogenic release of 7-amino-4-methylcoumarin from substrate upon deacetylase and trypsin enzymatic activity. Fluorescence measurements were obtained every five minutes using a multilabel plate reader and plate-stacker (Envision; Perkin-Elmer). Each plate was analyzed by plate repeat, and the first derivative within the linear range was imported into analytical software (Spotfire DecisionSite and GraphPad Prism). Replicate experimental data from incubations with inhibitor were normalized to controls.

HDAC9 = target: T2, HDAC9 (Homo sapiens, UniProt Q9UKV0); test: In vitro HDAC enzyme inhibition assay, HDAC9; type: biochemical; conditions: for HDAC9/HDAC6 in vitro selectivity: ratio of IC50 for HDAC9 relative to that of HDAC6; for IC50: recombinant full-length HDAC9, substrate MAZ1675 26 μM
T2 construct: Recombinant, full-length HDAC protein (BPS Biosciences) was incubated with fluorophore conjugated substrate; purchased BPS Biosciences
Method: as §1, §2

HDAC7 = target: T3, HDAC7 (Homo sapiens, UniProt Q8WUI4); test: In vitro HDAC enzyme inhibition assay, HDAC7; type: biochemical; conditions: for HDAC7/HDAC6 in vitro selectivity: ratio of IC50 for HDAC7 relative to that of HDAC6; for IC50: recombinant full-length HDAC7, substrate MAZ1675 22 μM
T3 construct: Recombinant, full-length HDAC protein (BPS Biosciences) was incubated with fluorophore conjugated substrate; purchased BPS Biosciences
T3 sequence (Q8WUI4 1-952): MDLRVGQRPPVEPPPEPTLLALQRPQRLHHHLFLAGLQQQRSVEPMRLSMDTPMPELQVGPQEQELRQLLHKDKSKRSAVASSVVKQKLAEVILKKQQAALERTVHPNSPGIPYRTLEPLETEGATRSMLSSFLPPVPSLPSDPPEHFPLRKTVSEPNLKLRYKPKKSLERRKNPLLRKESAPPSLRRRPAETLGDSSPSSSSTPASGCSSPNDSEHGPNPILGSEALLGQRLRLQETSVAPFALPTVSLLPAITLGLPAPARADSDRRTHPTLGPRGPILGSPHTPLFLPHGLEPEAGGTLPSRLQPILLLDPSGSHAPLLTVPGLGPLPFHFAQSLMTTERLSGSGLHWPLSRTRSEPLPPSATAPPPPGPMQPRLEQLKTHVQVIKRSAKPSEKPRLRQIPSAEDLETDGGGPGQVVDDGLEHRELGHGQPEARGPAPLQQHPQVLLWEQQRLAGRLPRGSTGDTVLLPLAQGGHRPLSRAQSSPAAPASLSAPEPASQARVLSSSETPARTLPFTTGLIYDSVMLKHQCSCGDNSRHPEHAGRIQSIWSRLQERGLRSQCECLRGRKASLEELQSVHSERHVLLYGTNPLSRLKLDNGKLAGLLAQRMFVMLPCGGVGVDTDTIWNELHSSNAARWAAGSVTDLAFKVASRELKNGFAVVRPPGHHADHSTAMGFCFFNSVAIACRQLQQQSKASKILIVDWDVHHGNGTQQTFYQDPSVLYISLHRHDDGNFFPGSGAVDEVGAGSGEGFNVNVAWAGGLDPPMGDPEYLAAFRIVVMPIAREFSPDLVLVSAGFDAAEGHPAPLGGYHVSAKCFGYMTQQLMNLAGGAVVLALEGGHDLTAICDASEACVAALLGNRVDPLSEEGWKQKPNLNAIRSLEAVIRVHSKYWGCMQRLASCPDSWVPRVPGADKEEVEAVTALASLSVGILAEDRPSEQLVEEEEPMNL
Method: as §1, §2

HDAC5 = target: T4, HDAC5 (Homo sapiens, UniProt Q9UQL6); test: In vitro HDAC enzyme inhibition assay, HDAC5; type: biochemical; conditions: for HDAC5/HDAC6 in vitro selectivity: ratio of IC50 for HDAC5 relative to that of HDAC6; for IC50: recombinant full-length HDAC5, substrate MAZ1675 40 μM
T4 construct: Recombinant, full-length HDAC protein (BPS Biosciences) was incubated with fluorophore conjugated substrate; purchased BPS Biosciences
Method: as §1, §2

HDAC1 = target: T5, HDAC1 (Homo sapiens, UniProt Q13547); test: In vitro HDAC enzyme inhibition assay, HDAC1; type: biochemical; conditions: for HDAC1/HDAC6 in vitro selectivity: ratio of IC50 for HDAC1 relative to that of HDAC6; for IC50: recombinant full-length HDAC1, substrate MAZ1600 21 μM
T5 construct: Recombinant, full-length HDAC protein (BPS Biosciences) was incubated with fluorophore conjugated substrate; purchased BPS Biosciences
Method: as §1, §2

HDAC4 = target: T6, HDAC4 (Homo sapiens, UniProt P56524); test: In vitro HDAC enzyme inhibition assay, HDAC4; type: biochemical; conditions: for HDAC4/HDAC6 in vitro selectivity: ratio of IC50 for HDAC4 relative to that of HDAC6; for IC50: recombinant full-length HDAC4, substrate MAZ1675 10 μM
T6 construct: Recombinant, full-length HDAC protein (BPS Biosciences) was incubated with fluorophore conjugated substrate; purchased BPS Biosciences
Method: as §1, §2

HDAC8 = target: T7, HDAC8 (Homo sapiens, UniProt Q9BY41); test: In vitro HDAC enzyme inhibition assay, HDAC8; type: biochemical; conditions: for HDAC8/HDAC6 in vitro selectivity: ratio of IC50 for HDAC8 relative to that of HDAC6; for IC50: recombinant full-length HDAC8, substrate MAZ1675 282 μM
T7 construct: Recombinant, full-length HDAC protein (BPS Biosciences) was incubated with fluorophore conjugated substrate; purchased BPS Biosciences
T7 sequence (Q9BY41 1-377): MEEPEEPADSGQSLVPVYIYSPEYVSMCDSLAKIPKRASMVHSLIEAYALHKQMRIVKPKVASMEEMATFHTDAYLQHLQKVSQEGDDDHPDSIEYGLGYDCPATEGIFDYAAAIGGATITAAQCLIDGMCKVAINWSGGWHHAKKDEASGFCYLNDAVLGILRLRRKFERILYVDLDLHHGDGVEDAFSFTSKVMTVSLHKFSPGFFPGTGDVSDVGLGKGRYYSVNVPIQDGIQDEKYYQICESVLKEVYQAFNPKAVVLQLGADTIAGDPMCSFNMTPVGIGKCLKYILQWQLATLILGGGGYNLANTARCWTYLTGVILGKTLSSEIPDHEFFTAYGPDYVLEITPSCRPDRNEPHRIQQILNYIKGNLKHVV
Method: as §1, §2

HDAC2 = target: T8, HDAC2 (Homo sapiens, UniProt Q92769); test: In vitro HDAC enzyme inhibition assay, HDAC2; type: biochemical; conditions: for HDAC2/HDAC6 in vitro selectivity: ratio of IC50 for HDAC2 relative to that of HDAC6; for IC50: recombinant full-length HDAC2, substrate MAZ1600 22 μM
T8 construct: Recombinant, full-length HDAC protein (BPS Biosciences) was incubated with fluorophore conjugated substrate; purchased BPS Biosciences
Method: as §1, §2

acetylated tubulin = test: High-content image analysis of induction of acetylated tubulin in A549 cells; conditions: for levels of acetylated tubulin, dose response (in words) / AcHistone/AcTubulin in cell selectivity toward HDAC6: A549 cells; for levels of acetylated tubulin, dose response (in words): FIG. 11; for EC50: Homo sapiens, A549, 8 h, read-out: EC50 for half-maximal induction of acetylated tubulin (AcTubulin); for AcHistone/AcTubulin in cell selectivity toward HDAC6: ratio of EC50 acetylated histone to EC50 acetylated tubulin

T8 sequence (Q92769 whole entry): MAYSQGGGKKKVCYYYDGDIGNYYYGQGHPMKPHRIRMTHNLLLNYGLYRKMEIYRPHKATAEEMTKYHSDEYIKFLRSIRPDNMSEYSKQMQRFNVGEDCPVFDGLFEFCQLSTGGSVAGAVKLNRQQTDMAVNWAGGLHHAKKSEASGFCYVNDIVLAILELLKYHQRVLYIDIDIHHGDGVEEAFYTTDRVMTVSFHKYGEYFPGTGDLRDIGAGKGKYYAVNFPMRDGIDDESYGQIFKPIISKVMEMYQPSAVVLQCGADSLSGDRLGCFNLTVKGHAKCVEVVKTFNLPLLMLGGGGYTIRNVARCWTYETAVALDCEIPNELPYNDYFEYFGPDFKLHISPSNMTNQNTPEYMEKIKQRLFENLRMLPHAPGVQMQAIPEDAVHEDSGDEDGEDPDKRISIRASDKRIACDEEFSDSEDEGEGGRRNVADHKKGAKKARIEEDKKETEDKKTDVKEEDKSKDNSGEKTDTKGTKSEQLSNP
T6 sequence (P56524 whole entry): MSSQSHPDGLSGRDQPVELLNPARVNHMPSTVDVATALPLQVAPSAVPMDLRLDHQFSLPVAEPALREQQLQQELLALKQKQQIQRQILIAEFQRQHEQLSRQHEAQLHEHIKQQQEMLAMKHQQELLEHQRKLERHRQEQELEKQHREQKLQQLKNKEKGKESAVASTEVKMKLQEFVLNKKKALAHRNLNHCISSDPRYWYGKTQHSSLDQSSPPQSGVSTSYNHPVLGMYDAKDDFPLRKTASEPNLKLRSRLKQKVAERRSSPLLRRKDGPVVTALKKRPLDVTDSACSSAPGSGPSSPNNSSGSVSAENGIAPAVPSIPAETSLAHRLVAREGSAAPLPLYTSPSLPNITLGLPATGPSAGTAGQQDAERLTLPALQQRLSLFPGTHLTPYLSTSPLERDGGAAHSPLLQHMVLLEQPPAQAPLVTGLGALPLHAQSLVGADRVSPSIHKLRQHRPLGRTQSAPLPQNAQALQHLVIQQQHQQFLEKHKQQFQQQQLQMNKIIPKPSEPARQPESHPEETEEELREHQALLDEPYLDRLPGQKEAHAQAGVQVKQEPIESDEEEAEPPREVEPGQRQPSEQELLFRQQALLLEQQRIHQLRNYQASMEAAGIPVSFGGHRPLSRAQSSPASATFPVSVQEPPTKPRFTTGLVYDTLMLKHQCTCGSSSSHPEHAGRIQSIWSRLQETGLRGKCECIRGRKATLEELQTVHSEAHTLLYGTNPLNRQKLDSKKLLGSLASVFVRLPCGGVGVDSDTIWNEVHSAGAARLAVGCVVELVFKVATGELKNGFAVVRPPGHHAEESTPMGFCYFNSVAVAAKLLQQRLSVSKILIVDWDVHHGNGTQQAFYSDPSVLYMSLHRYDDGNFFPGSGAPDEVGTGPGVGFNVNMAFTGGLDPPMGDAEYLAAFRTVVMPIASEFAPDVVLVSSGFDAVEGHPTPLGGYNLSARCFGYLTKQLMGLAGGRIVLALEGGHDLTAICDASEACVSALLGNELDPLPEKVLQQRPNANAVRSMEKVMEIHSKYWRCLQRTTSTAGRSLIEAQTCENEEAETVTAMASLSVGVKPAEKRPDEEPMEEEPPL
T4 sequence (Q9UQL6 whole entry): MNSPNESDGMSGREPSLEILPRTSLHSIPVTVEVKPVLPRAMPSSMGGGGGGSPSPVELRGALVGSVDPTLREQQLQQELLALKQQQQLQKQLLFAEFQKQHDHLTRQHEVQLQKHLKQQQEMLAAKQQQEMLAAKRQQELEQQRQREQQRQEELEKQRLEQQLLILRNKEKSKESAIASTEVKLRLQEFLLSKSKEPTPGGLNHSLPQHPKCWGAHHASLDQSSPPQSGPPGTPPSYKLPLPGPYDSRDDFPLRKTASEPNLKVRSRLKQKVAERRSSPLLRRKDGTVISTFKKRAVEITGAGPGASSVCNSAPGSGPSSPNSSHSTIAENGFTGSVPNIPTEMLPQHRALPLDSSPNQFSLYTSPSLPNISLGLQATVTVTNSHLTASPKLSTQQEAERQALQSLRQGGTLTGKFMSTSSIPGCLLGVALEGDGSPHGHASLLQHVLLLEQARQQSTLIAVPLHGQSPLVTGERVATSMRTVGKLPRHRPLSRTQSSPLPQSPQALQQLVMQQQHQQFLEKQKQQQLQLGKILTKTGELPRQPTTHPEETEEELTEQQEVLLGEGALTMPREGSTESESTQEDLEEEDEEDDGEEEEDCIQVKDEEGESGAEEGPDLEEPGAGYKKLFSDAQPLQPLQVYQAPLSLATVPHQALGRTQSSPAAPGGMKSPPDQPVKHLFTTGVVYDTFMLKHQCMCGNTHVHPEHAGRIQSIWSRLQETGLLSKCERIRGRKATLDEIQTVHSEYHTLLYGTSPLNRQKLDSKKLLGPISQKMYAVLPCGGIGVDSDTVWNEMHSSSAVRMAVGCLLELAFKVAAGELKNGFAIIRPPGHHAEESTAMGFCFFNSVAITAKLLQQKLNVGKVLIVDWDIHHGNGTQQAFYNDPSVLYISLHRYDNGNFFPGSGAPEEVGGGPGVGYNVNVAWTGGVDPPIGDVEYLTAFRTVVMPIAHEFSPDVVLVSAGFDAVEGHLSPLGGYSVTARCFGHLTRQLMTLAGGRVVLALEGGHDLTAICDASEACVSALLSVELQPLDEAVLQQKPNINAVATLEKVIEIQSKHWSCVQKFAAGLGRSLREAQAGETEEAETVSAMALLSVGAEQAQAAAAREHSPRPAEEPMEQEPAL
T5 sequence (Q13547 whole entry): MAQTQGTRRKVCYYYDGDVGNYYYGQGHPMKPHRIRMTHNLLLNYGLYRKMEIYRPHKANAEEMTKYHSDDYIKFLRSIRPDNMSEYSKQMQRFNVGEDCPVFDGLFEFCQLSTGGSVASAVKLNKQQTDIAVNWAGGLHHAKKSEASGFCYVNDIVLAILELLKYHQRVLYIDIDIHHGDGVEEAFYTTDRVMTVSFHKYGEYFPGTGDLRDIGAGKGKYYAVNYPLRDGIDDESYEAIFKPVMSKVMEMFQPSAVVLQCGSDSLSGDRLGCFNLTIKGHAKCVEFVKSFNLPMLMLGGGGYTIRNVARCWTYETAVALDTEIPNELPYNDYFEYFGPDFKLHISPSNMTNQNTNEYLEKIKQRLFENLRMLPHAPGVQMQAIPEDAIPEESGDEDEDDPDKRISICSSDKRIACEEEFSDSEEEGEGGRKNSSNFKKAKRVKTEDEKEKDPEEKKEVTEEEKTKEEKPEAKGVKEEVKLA
T2 sequence (Q9UKV0 whole entry): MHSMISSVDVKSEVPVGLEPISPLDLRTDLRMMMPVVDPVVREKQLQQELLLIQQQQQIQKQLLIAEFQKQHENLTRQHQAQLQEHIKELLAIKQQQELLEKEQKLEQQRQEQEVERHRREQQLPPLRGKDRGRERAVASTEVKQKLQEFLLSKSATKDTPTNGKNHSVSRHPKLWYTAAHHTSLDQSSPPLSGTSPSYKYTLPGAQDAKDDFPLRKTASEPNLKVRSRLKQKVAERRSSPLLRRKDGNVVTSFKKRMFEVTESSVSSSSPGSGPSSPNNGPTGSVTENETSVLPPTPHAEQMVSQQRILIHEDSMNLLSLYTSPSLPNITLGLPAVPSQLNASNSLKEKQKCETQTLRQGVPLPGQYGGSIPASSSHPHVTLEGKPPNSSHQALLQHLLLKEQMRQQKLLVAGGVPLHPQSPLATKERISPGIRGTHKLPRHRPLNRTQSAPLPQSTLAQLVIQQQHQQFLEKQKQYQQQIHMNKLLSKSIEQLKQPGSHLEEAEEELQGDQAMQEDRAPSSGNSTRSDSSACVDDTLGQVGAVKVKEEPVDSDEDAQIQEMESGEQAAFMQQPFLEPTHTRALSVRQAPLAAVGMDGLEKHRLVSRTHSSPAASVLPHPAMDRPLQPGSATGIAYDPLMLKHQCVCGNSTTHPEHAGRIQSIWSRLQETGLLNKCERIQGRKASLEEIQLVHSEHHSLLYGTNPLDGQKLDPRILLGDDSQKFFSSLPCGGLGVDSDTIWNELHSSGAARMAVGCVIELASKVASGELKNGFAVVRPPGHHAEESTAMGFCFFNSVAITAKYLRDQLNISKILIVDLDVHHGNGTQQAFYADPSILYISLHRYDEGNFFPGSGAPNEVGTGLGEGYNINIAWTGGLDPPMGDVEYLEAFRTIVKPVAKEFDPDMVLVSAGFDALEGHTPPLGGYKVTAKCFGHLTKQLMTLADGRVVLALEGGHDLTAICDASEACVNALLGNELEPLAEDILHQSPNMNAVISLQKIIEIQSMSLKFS
T1 sequence (O15379 whole entry): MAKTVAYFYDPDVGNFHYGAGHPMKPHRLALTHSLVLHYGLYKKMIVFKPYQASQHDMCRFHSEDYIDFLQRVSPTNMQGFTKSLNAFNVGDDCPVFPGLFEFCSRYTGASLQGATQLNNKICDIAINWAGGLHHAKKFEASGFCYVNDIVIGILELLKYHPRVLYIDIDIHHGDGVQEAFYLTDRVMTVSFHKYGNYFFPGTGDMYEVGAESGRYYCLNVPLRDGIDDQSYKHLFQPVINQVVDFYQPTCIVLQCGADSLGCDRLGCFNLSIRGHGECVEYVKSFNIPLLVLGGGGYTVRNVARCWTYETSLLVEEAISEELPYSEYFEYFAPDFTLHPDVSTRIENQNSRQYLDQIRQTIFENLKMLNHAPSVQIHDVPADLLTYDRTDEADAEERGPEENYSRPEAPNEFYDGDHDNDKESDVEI
T1 sequence (Q9Y618 395-489 partner limits assumed): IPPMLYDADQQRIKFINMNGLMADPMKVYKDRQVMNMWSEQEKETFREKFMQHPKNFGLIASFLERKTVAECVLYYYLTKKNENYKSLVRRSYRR

| SMILES | levels of acetylated histone, dose response (in words) (acetylated histones) | EC50 (acetylated histones) [nM] | HDAC3/HDAC6 in vitro selectivity (HDAC3) | IC50 (HDAC3) [nM] | HDAC9/HDAC6 in vitro selectivity (HDAC9) | IC50 (HDAC9) [nM] | HDAC7/HDAC6 in vitro selectivity (HDAC7) | IC50 (HDAC7) [nM] | HDAC5/HDAC6 in vitro selectivity (HDAC5) | IC50 (HDAC5) [nM] | HDAC1/HDAC6 in vitro selectivity (HDAC1) | IC50 (HDAC1) [nM] | HDAC4/HDAC6 in vitro selectivity (HDAC4) | IC50 (HDAC4) [nM] | HDAC8/HDAC6 in vitro selectivity (HDAC8) | IC50 (HDAC8) [nM] | HDAC2/HDAC6 in vitro selectivity (HDAC2) | IC50 (HDAC2) [nM] | EC50 (acetylated tubulin) [nM] | AcHistone/AcTubulin in cell selectivity toward HDAC6 (acetylated tubulin) | further results |
| --- | --- | --- | --- | --- | --- | --- | --- | --- | --- | --- | --- | --- | --- | --- | --- | --- | --- | --- | --- | --- | --- |
| O=C(NO)c1ccc(Cn2c(C(F)(F)F)nc3ccccc32)cc1 [A1, N-hydroxy-4-((2-(trifluoromethyl)-1H-benzo[d]imidazol-1-yl)methyl)benzamide] | absence of the dose-dependent response | 6340 | 3791 | 1790 | 2167 | 1020 | 255 | 121 | 953 | 450 | 1444 | 682 | 2948 | 1390 | 3764 | 1780 | 1230 | 581 | 452 | 14.01 | levels of acetylated tubulin, dose response (in words) (acetylated tubulin): dose-dependent increase |
| Cc1ccc2c(c1)nc(C(F)(F)F)n2Cc1ccc(C(=O)NO)cc1 [A2, N-hydroxy-4-((5-methyl-2-(trifluoromethyl)-1H-benzo[d]imidazol-1-yl)methyl)benzamide] | – | 242 | 3718 | 1140 | 1942 | 594 | 348 | 106 | 537 | 164 | 808 | 247 | 2775 | 848 | 4364 | 1330 | 553 | 169 | 100 | 2.411 | – |
| O=C(NO)c1ccc(Cn2c(C(F)(F)F)nc3cc(F)ccc32)cc1 [A3, 4-((5-fluoro-2-(trifluoromethyl)-1H-benzo[d]imidazol-1-yl)methyl)-N-hydroxybenzamide] | – | 592 | 3126 | 1790 | 2127 | 1220 | 484 | 278 | 486 | 279 | 812 | 466 | 1901 | 1090 | 2540 | 1460 | 844 | 484 | 77.3 | 7.664 | – |
| O=C(NO)c1ccc(Cn2c(C(F)(F)F)nc3cc(Cl)ccc32)cc1 [A4, 4-((5-chloro-2-(trifluoromethyl)-1H-benzo[d]imidazol-1-yl)methyl)-N-hydroxybenzamide] | absence of the dose-dependent response | 14900 | 1096 | 1270 | 943 | 1090 | 323 | 374 | 246 | 285 | 343 | 398 | 1188 | 1380 | 1240 | 1440 | 259 | 300 | 275 | 54.11 | levels of acetylated tubulin, dose response (in words) (acetylated tubulin): dose-dependent increase |
| O=C(NO)c1ccc(Cn2c(C(F)(F)F)nc3cc(Br)ccc32)cc1 [A5, 4-((5-bromo-2-(trifluoromethyl)-1H-benzo[d]imidazol-l-yl)methyl)-N-hydroxybenzamide] | – | 1930 | 2529 | 784 | 2420 | 750 | 735 | 228 | 476 | 148 | 541 | 167 | 2783 | 862 | 3501 | 1080 | 471 | 146 | 190 | 10.17 | – |
